Test results: ChEMBL document CHEMBL5465560, “Selectivity Literature for EUbOPEN Chemogenomic Library” (2024)

Key:
[1] = target: T1, Mitogen-activated protein kinase kinase kinase 3 (Homo sapiens) (UniProt Q99759); experiment: Selectivity interaction (Ambit KINOMEscan and KiNATiv profiling in Jurkat cells) EUB0000090b MAP3K3; format: cell-based; conditions: at 1 µM
T1 sequence (whole entry): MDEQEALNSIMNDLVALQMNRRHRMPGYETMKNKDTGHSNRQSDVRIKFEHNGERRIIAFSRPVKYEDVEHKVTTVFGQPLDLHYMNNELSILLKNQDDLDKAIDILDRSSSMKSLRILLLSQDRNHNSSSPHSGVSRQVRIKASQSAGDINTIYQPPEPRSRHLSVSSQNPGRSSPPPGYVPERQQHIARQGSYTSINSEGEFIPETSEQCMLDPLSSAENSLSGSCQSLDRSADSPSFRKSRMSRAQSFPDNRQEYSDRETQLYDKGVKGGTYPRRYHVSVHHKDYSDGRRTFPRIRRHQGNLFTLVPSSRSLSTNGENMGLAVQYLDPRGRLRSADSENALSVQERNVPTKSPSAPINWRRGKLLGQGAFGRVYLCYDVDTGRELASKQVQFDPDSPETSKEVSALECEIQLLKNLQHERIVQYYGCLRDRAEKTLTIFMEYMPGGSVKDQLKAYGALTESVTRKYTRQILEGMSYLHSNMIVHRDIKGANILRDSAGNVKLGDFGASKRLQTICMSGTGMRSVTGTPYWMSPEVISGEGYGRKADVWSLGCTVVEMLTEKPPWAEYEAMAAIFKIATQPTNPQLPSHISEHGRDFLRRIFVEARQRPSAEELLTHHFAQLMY

[2] = target: Tyrosine-protein kinase Yes (Homo sapiens) (UniProt P07947); experiment: Selectivity interaction (KinomeScan (DiscoverX)) EUB0001079a YES1; conditions: at 1 µM
[3] = target: Ribosomal protein S6 kinase alpha-4 (Homo sapiens) (UniProt O75676); experiment: Selectivity interaction (ActivX KiNativ screen (ex vivo kinase selectivity in human PBMCs)) EUB0001619a RPS6KA4; format: cell-based; conditions: PBMC, at 1 µM
[4] = target: T2, SNF-related serine/threonine-protein kinase (Homo sapiens) (UniProt Q9NRH2); experiment: Selectivity interaction (KinomeScan (DiscoverX)) EUB0001619a SNRK; conditions: at 1 µM
T2 sequence (whole entry): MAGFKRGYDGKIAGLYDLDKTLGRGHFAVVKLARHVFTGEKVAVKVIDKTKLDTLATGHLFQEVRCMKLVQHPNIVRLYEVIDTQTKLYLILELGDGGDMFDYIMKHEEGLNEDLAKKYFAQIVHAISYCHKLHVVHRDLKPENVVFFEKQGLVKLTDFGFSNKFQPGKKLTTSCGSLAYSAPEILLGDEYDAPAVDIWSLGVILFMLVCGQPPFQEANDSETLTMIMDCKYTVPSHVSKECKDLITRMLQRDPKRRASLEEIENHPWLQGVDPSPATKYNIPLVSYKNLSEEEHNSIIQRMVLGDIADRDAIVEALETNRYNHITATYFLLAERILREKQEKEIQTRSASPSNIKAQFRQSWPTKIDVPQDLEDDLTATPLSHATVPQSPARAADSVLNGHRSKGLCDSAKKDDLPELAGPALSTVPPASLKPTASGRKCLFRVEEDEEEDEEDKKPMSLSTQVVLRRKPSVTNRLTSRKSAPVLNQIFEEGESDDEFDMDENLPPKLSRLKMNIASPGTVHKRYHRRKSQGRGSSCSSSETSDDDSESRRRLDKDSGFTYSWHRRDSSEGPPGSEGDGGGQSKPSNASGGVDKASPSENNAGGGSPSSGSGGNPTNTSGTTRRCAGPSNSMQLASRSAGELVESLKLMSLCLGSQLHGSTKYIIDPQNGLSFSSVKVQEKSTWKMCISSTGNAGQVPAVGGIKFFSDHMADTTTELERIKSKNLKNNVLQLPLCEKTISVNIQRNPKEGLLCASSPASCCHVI

[5] = target: T3, Ephrin type-B receptor 4 (Homo sapiens) (UniProt P54760); experiment: Selectivity interaction (KinomeScan (DiscoverX)) EUB0000229b EPHB4; conditions: at 10 µM
T3 sequence (whole entry): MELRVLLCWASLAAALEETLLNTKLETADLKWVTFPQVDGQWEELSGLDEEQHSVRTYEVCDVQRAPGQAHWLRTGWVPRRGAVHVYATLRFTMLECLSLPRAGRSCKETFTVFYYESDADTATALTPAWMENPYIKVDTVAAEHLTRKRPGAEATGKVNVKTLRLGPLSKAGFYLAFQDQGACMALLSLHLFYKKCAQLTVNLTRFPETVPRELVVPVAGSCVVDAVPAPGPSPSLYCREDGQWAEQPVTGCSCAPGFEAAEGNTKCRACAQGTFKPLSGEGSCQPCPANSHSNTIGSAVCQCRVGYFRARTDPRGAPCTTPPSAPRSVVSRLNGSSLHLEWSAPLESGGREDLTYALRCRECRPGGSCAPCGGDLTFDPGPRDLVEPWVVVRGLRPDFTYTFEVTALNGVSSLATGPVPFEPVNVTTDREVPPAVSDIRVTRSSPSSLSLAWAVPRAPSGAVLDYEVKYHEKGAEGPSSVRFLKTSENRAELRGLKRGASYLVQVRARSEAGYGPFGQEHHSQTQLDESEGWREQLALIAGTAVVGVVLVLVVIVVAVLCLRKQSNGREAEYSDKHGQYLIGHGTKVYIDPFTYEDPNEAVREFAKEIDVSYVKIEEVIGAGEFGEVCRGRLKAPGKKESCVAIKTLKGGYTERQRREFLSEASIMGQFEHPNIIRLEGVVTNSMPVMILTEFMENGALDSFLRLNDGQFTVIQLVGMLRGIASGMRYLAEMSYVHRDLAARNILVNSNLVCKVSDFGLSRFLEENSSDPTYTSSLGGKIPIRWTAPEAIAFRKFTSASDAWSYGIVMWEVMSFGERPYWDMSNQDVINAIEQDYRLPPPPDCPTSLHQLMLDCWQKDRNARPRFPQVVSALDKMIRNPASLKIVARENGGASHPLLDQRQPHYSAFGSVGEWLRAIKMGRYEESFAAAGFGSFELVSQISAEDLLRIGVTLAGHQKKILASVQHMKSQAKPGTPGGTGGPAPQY

[6] = target: T4, Dual specificity mitogen-activated protein kinase kinase 4 (Homo sapiens) (UniProt P45985); experiment: Selectivity interaction (LanthaScreen Eu Kinase Binding Assay) EUB0001632a MAP2K4; conditions: at 10 µM
T4 sequence (whole entry): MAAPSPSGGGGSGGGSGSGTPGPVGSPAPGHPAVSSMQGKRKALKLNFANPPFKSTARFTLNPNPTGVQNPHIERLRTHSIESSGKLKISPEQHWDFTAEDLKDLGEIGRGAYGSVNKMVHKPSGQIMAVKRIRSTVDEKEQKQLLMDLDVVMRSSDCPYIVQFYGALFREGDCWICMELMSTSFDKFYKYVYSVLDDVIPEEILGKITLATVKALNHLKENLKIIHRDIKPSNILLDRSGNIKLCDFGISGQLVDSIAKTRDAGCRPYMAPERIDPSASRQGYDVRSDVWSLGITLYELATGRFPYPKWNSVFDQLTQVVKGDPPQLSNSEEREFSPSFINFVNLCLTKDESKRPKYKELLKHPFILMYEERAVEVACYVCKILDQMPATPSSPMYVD

Tyrosine-protein kinase Yes (Homo sapiens), sequence (P07947 2-543 limits assumed): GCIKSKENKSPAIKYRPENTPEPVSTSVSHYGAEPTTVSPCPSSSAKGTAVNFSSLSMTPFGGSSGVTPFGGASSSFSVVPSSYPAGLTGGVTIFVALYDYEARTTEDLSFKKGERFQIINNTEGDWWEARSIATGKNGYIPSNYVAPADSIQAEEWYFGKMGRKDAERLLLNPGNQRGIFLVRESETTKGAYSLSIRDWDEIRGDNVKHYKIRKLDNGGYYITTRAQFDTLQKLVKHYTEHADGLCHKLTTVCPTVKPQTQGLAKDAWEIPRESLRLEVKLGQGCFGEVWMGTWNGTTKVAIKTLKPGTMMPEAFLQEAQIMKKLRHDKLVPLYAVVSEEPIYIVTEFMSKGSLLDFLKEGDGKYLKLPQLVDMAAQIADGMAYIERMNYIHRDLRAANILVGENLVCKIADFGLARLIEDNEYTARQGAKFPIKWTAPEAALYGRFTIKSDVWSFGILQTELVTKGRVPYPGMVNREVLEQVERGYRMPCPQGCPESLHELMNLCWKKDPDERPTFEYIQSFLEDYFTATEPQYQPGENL
Ribosomal protein S6 kinase alpha-4 (Homo sapiens), sequence (O75676 whole entry, looked up): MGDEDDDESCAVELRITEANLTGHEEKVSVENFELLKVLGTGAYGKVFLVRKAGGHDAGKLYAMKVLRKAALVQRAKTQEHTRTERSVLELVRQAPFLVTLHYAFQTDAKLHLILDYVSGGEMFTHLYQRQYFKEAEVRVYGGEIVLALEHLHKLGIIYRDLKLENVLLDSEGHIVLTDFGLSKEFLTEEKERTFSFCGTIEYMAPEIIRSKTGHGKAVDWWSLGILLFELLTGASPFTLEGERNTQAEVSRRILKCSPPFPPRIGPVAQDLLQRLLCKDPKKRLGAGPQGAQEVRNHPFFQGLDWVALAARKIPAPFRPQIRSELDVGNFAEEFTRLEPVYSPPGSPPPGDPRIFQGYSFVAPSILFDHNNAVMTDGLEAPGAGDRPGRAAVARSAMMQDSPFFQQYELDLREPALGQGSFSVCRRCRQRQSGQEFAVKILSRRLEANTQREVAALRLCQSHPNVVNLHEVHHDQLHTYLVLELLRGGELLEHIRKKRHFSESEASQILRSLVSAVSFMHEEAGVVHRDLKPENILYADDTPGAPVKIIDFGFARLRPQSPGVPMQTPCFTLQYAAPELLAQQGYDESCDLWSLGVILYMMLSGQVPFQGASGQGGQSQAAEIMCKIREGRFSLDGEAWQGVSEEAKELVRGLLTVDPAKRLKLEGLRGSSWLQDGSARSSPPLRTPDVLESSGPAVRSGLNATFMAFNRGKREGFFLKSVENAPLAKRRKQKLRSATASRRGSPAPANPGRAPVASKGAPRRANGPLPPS

## CN(C)C/C=C/C(=O)Nc1ccc(C(=O)N2CCCC(Nc3ncc(Cl)c(-c4c[nH]c5ccccc45)n3)C2)cc1 (stereo unspecified)
[1]
  % of control: 90%

## Nc1cnc(N2CCc3cc(S(=O)(=O)Nc4c(F)cc(Cl)cc4F)cc(N4CCCC4=O)c32)nc1 [TP-020n]
[2]
  % of control: 100%

## N#Cc1cccc(-c2c[nH]c3ncnc(N4CCOCC4)c23)c1
[3]
  % of inhibition: 20%
[4]
  % of control: 100%

## COc1cc(N(C)c2ccnc3ccc(C(F)(F)F)cc23)cc(OC)c1OC
[5]
  % binding: 100%

## Cn1cc(-n2cnc3c(NCc4nc5cc(Cl)c(Cl)cc5[nH]4)nc(N4CCOCC4)nc32)cn1
[6]
  % of inhibition: -62.3%
